Experimental data published in PubChem BioAssay AID1259407 (Chemical Carcinogenesis Research Information System (CCRIS), 2018).
The source made the active and inactive calls. The rule behind the calls is not given here.

Test system: CCRIS mutagenicity, Ames/micronucleus/aberration tests
Test: CCRIS mutagenicity studies
[1] = Test System: AMES SALMONELLA TYPHIMURIUM, Strain/Indicator: TA98, Metabolic Activation: HAMSTER, LIVER, S-9, AROCLOR 1254 (10%), Method: PREINCUBATION
[2] = Test System: AMES SALMONELLA TYPHIMURIUM, Strain/Indicator: TA98, Metabolic Activation: NONE, Method: PREINCUBATION
[3] = Test System: AMES SALMONELLA TYPHIMURIUM, Strain/Indicator: TA98, Metabolic Activation: NONE, Method: STANDARD PLATE
[4] = Test System: AMES SALMONELLA TYPHIMURIUM, Strain/Indicator: TA98, Metabolic Activation: RAT, LIVER, S-9, AROCLOR 1254 (10%), Method: PREINCUBATION
[5] = Test System: AMES SALMONELLA TYPHIMURIUM, Strain/Indicator: TA100, Metabolic Activation: HAMSTER, LIVER, S-9, AROCLOR 1254 (10%), Method: PREINCUBATION
[6] = Test System: AMES SALMONELLA TYPHIMURIUM, Strain/Indicator: TA100, Metabolic Activation: NONE, Method: PREINCUBATION
[7] = Test System: AMES SALMONELLA TYPHIMURIUM, Strain/Indicator: TA100, Metabolic Activation: NONE, Method: STANDARD PLATE
[8] = Test System: AMES SALMONELLA TYPHIMURIUM, Strain/Indicator: TA100, Metabolic Activation: RAT, LIVER, S-9, AROCLOR 1254 (10%), Method: PREINCUBATION
[9] = Test System: AMES SALMONELLA TYPHIMURIUM, Strain/Indicator: TA1535, Metabolic Activation: HAMSTER, LIVER, S-9, AROCLOR 1254 (10%), Method: PREINCUBATION
[10] = Test System: AMES SALMONELLA TYPHIMURIUM, Strain/Indicator: TA1535, Metabolic Activation: NONE, Method: PREINCUBATION
[11] = Test System: AMES SALMONELLA TYPHIMURIUM, Strain/Indicator: TA1535, Metabolic Activation: NONE, Method: STANDARD PLATE
[12] = Test System: AMES SALMONELLA TYPHIMURIUM, Strain/Indicator: TA1535, Metabolic Activation: RAT, LIVER, S-9, AROCLOR 1254 (10%), Method: PREINCUBATION
[13] = Test System: AMES SALMONELLA TYPHIMURIUM, Strain/Indicator: TA1537, Metabolic Activation: HAMSTER, LIVER, S-9, AROCLOR 1254 (10%), Method: PREINCUBATION
[14] = Test System: AMES SALMONELLA TYPHIMURIUM, Strain/Indicator: TA1537, Metabolic Activation: NONE, Method: PREINCUBATION
[15] = Test System: AMES SALMONELLA TYPHIMURIUM, Strain/Indicator: TA1537, Metabolic Activation: RAT, LIVER, S-9, AROCLOR 1254 (10%), Method: PREINCUBATION
[16] = Test System: CHINESE HAMSTER V-79, Strain/Indicator: V-79/6-THIOGUANINE, Metabolic Activation: NONE
[17] = Test System: CHINESE HAMSTER V-79, Strain/Indicator: V-79/OUABAIN, Metabolic Activation: NONE
[18] = Test System: AMES SALMONELLA TYPHIMURIUM, Strain/Indicator: TA98, Metabolic Activation: HAMSTER, LIVER, S-9, AROCLOR 1254, Method: PREINCUBATION
[19] = Test System: AMES SALMONELLA TYPHIMURIUM, Strain/Indicator: TA98, Metabolic Activation: RAT, LIVER, S-9, AROCLOR 1254, Method: PREINCUBATION
[20] = Test System: AMES SALMONELLA TYPHIMURIUM, Strain/Indicator: TA100, Metabolic Activation: HAMSTER, LIVER, S-9, AROCLOR 1254, Method: PREINCUBATION
[21] = Test System: AMES SALMONELLA TYPHIMURIUM, Strain/Indicator: TA100, Metabolic Activation: RAT, LIVER, S-9, AROCLOR 1254, Method: PREINCUBATION
[22] = Test System: AMES SALMONELLA TYPHIMURIUM, Strain/Indicator: TA1535, Metabolic Activation: HAMSTER, LIVER, S-9, AROCLOR 1254, Method: PREINCUBATION
[23] = Test System: AMES SALMONELLA TYPHIMURIUM, Strain/Indicator: TA1535, Metabolic Activation: RAT, LIVER, S-9, AROCLOR 1254, Method: PREINCUBATION
[24] = Test System: AMES SALMONELLA TYPHIMURIUM, Strain/Indicator: TA1537, Metabolic Activation: HAMSTER, LIVER, S-9, AROCLOR 1254, Method: PREINCUBATION
[25] = Test System: AMES SALMONELLA TYPHIMURIUM, Strain/Indicator: TA1537, Metabolic Activation: RAT, LIVER, S-9, AROCLOR 1254, Method: PREINCUBATION

Q: For `CN(C)CCCN1c2ccccc2Sc2ccc(Cl)cc21`, which mutagenic call (End Point: IN VITRO CHROMOSOMAL ABERRATIONS, Test System: CHINESE HAMSTER OVARY CELLS, Metabolic Activation: NONE) is on record?
A: Its mutagenic call is “inactive; negative”.

Q: What about the mutagenic call (End Point: IN VITRO CHROMOSOMAL ABERRATIONS, Test System: CHINESE HAMSTER OVARY CELLS, Metabolic Activation: RAT, LIVER, S-9, AROCLOR 1254) of the same compound?
A: Its mutagenic call is “inactive; negative”.

Q: What about the mutagenic call [1] of the same compound?
A: The mutagenic call was “inactive; negative”.

Q: And the mutagenic call [2]?
A: Its mutagenic call is “inactive; negative”.

Q: What about the mutagenic call (Test System: AMES SALMONELLA TYPHIMURIUM, Strain/Indicator: TA98, Metabolic Activation: NONE, Method: SPOT TEST) of the same compound?
A: Its mutagenic call is “inactive; negative”.

Q: And the mutagenic call [3]?
A: The mutagenic call was “inactive; negative”.

Q: What about the mutagenic call [4] of the same compound?
A: Its mutagenic call is “inactive; negative”.

Q: What about the mutagenic call (Test System: AMES SALMONELLA TYPHIMURIUM, Strain/Indicator: TA98, Metabolic Activation: RAT, LIVER, S-9, AROCLOR 1254, Method: STANDARD PLATE) of the same compound?
A: Its mutagenic call is “inactive; negative”.

Q: What about the mutagenic call [5] of the same compound?
A: Its mutagenic call is “inactive; negative”.

Q: And the mutagenic call [6]?
A: The mutagenic call was “inactive; negative”.

Q: What about the mutagenic call [7] of the same compound?
A: The mutagenic call was “inactive; negative”.

Q: And the mutagenic call [8]?
A: Its mutagenic call is “inactive; negative”.

Q: What about the mutagenic call (Test System: AMES SALMONELLA TYPHIMURIUM, Strain/Indicator: TA100, Metabolic Activation: RAT, LIVER, S-9, AROCLOR 1254, Method: STANDARD PLATE) of the same compound?
A: Its mutagenic call is “inactive; negative”.

Q: And the mutagenic call [9]?
A: The mutagenic call was “inactive; negative”.

Q: And the mutagenic call [10]?
A: The mutagenic call was “inactive; negative”.

Q: And the mutagenic call [11]?
A: Its mutagenic call is “inactive; negative”.

Q: What about the mutagenic call [12] of the same compound?
A: Its mutagenic call is “inactive; negative”.

Q: What about the mutagenic call (Test System: AMES SALMONELLA TYPHIMURIUM, Strain/Indicator: TA1535, Metabolic Activation: RAT, LIVER, S-9, AROCLOR 1254, Method: STANDARD PLATE) of the same compound?
A: The mutagenic call was “inactive; negative”.

Q: What about the mutagenic call [13] of the same compound?
A: Its mutagenic call is “inactive; negative”.

Q: What about the mutagenic call [14] of the same compound?
A: The mutagenic call was “inactive; negative”.

Q: And the mutagenic call (Test System: AMES SALMONELLA TYPHIMURIUM, Strain/Indicator: TA1537, Metabolic Activation: NONE, Method: STANDARD PLATE)?
A: The mutagenic call was “inactive; negative”.

Q: What about the mutagenic call [15] of the same compound?
A: The mutagenic call was “active; positive”.

Q: And the mutagenic call (Test System: AMES SALMONELLA TYPHIMURIUM, Strain/Indicator: TA1537, Metabolic Activation: RAT, LIVER, S-9, AROCLOR 1254, Method: STANDARD PLATE)?
A: The mutagenic call was “inactive; negative”.

Q: And the mutagenic call [16]?
A: The mutagenic call was “inactive; negative”.

Q: What about the mutagenic call [17] of the same compound?
A: The mutagenic call was “inactive; negative”.

Q: With `CNc1ccc2ncc(C)nc2c1C` as the compound, how does the mutagenic call [2] read?
A: Its mutagenic call is “inactive; negative”.

Q: What about the mutagenic call (Test System: AMES SALMONELLA TYPHIMURIUM, Strain/Indicator: TA98, Metabolic Activation: RAT, LIVER, S-9, PCB, Method: PREINCUBATION) of the same compound?
A: Its mutagenic call is “active; positive”.

Q: What about the mutagenic call [6] of the same compound?
A: Its mutagenic call is “inactive; negative”.

Q: And the mutagenic call (Test System: AMES SALMONELLA TYPHIMURIUM, Strain/Indicator: TA100, Metabolic Activation: RAT, LIVER, S-9, PCB, Method: PREINCUBATION)?
A: The mutagenic call was “active; positive”.

Q: Which mutagenic call [18] does the source give for `Clc1c(Cl)c(Cl)c2ccccc2c1Cl` here?
A: Its mutagenic call is “inactive; negative”.

Q: And the mutagenic call [2]?
A: The mutagenic call was “inactive; negative”.

Q: What about the mutagenic call [19] of the same compound?
A: Its mutagenic call is “inactive; negative”.

Q: What about the mutagenic call [20] of the same compound?
A: Its mutagenic call is “inactive; negative”.

Q: What about the mutagenic call [6] of the same compound?
A: The mutagenic call was “inactive; negative”.

Q: And the mutagenic call [21]?
A: The mutagenic call was “inactive; negative”.

Q: And the mutagenic call [22]?
A: The mutagenic call was “inactive; negative”.

Q: And the mutagenic call [10]?
A: Its mutagenic call is “inactive; negative”.

Q: What about the mutagenic call [23] of the same compound?
A: The mutagenic call was “inactive; negative”.

Q: And the mutagenic call [24]?
A: The mutagenic call was “inactive; negative”.

Q: What about the mutagenic call [14] of the same compound?
A: The mutagenic call was “inactive; negative”.

Q: What about the mutagenic call [25] of the same compound?
A: The mutagenic call was “inactive; negative”.

Q: How did the mutagenic call [3] turn out when `O=[N+]([O-])c1c2c(c3ccc4cccc5ccc1c3c45)CCCC2O` (stereo not drawn) was run?
A: The mutagenic call was “inactive; negative”.

Q: What about the mutagenic call [7] of the same compound?
A: Its mutagenic call is “inactive; negative”.

Q: What does the source list for `Brc1ccc(-c2ccccc2)cc1`?
A: mutagenic call [18]: inactive; negative; mutagenic call [2]: inactive; negative; mutagenic call [19]: inactive; negative; mutagenic call [20]: inactive; negative; mutagenic call [6]: inactive; negative; mutagenic call [21]: inactive; negative; mutagenic call [22]: inactive; negative; mutagenic call [10]: inactive; negative; mutagenic call [23]: inactive; negative; mutagenic call [24]: inactive; negative; mutagenic call [14]: inactive; negative; mutagenic call [25]: inactive; negative

Q: Which results are given for `CC(C)CCC[C@@H](C)[C@H]1CC[C@H]2[C@@H]3C[C@@H]4O[C@@]45C[C@@H](O)CC[C@]5(C)[C@H]3CC[C@]12C`?
A: mutagenic call (Test System: AMES SALMONELLA TYPHIMURIUM, Strain/Indicator: TA97, Metabolic Activation: NONE, Method: STANDARD PLATE): inactive; negative; mutagenic call [3]: inactive; negative; mutagenic call [7]: inactive; negative; mutagenic call (Test System: AMES SALMONELLA TYPHIMURIUM, Strain/Indicator: TA102, Metabolic Activation: NONE, Method: STANDARD PLATE): inactive; negative; mutagenic call [11]: inactive; negative; mutagenic call (Test System: AMES SALMONELLA TYPHIMURIUM, Strain/Indicator: TA1538, Metabolic Activation: RAT, LIVER, S-9, AROCLOR 1254 (10%), Method: STANDARD PLATE): active; positive; mutagenic call [16]: active; positive; mutagenic call (Test System: CHINESE HAMSTER V-79, Strain/Indicator: V-79/8-AZAGUANINE, Metabolic Activation: NONE): active; positive; mutagenic call [17]: inactive; negative; mutagenic call (Test System: MOUSE LYMPHOMA, Strain/Indicator: L5178Y (TK+/TK-), Metabolic Activation: NONE, Method: SUSPENSION/PLATE): active; positive. reevaluation of results: equivocal; mutagenic call (Test System: Mouse lymphoma, Strain/Indicator: L5178Y (tk+/tk-), Metabolic Activation: Rat, Liver, S-9, Aroclor 1254, Method: Suspension/plate): inactive; inconclusive (previous evaluation negative)

Q: How did the mutagenic call [1] turn out when `CN(C)C` was run?
A: The mutagenic call was “inactive; negative”.

Q: What about the mutagenic call [2] of the same compound?
A: Its mutagenic call is “inactive; negative”.

Q: And the mutagenic call [4]?
A: Its mutagenic call is “inactive; negative”.

Q: And the mutagenic call [5]?
A: The mutagenic call was “inactive; negative”.

Q: And the mutagenic call [6]?
A: The mutagenic call was “inactive; negative”.

Q: And the mutagenic call [8]?
A: The mutagenic call was “inactive; negative”.

Q: What about the mutagenic call [9] of the same compound?
A: The mutagenic call was “inactive; negative”.

Q: What about the mutagenic call [10] of the same compound?
A: Its mutagenic call is “inactive; negative”.

Q: And the mutagenic call [12]?
A: Its mutagenic call is “inactive; negative”.

Q: What about the mutagenic call [13] of the same compound?
A: Its mutagenic call is “inactive; negative”.

Q: And the mutagenic call [14]?
A: Its mutagenic call is “inactive; negative”.

Q: What about the mutagenic call [15] of the same compound?
A: The mutagenic call was “inactive; negative”.
